30 compounds from ChEMBL document CHEMBL1131925, “Modulation of multidrug resistance in tumor cells by taxinine derivatives” (Bioorg Med Chem Lett, 1999) can be followed below.

Broadly, the IC50 is the midpoint of a concentration-inhibition curve. The low end stands for greater potency, the high end for weaker potency.

Converted amounts (≈) assume the structure as drawn.

Test [1] can be described thus: Amount of vincristine (VCR) accumulation in multidrug-resistant human ovarian cancer 2780AD cells at a concentration of 10 ug/mL. Type of test: functional, A2780 ADR.
Test [2] in a line: Amount of vincristine (VCR) accumulation in multidrug-resistant human ovarian cancer 2780AD cells at a concentration of 1 ug/mL. Type of test: functional, A2780 ADR.
A short description of test [3]: Cytotoxicity against murine lymphoma L1210 cells. Type of test: functional, cell-based. The note with it: Mus musculus.
A short description of test [4]: Cytotoxicity against human epidermoid carcinoma KB cells. Type of test: functional, cell-based.

`C=C1[C@@H](O)CC[C@@]2(C)[C@@H](OC(C)=O)[C@H](OC(C)=O)C3=C(C)[C@H](O)C[C@@H]([C@@H](OC(C)=O)[C@H]12)C3(C)C`: the Vincristine accumulation in test [1] was 290%. In test [2], the “Vincristine accumulation (% of control)” value is on record as 149%.
For `C=C1[C@@H](OC(=O)/C=C/c2ccccc2)CC[C@@]2(C)[C@@H](OC(=O)/C=C/c3ccccc3)[C@H](OC(=O)/C=C/c3ccccc3)C3=C(C)C(=O)C[C@@H]([C@@H](OC(=O)/C=C/c4ccccc4)[C@H]12)C3(C)C` the same measures were 230% and 186%.
As to `C=C1[C@@H](OC(=O)/C=C/c2ccccc2)CC[C@@]2(C)[C@@H](O)[C@H](O)C3=C(C)C(=O)C[C@@H]([C@@H](OC(C)=O)[C@H]12)C3(C)C`, in test [1], the Vincristine accumulation is reported as 619%. For the same compound, the “Vincristine accumulation (% of control)” value in test [2] is on record as 274%.
In test [1], `CC(=O)O[C@@H]1[C@@H]2CC(=O)C(C)=C([C@@H](OC(C)=O)[C@H](OC(C)=O)[C@]3(C)CC[C@H](OC(=O)c4ccccc4)[C@]4(CO4)[C@@H]13)C2(C)C` yielded a Vincristine accumulation of 391%. The “Vincristine accumulation (% of control)” value in test [2] stood at 200%.
Compound `C=C1[C@@H](O)CC[C@@]2(C)[C@@H](OC(C)=O)[C@H](OC(C)=O)C3=C(C)[C@H](OC(=O)/C=C/c4ccccc4)C[C@@H]([C@@H](OC(C)=O)[C@H]12)C3(C)C` showed a Vincristine accumulation in test [1] of 551%. The “Vincristine accumulation (% of control)” value in test [2] is given as 213%.
For `C=C1[C@@H](O)CC[C@@]2(C)[C@@H](OC(C)=O)[C@H](OC(C)=O)C3=C(C)[C@@H](OC(=O)/C=C/c4ccccc4)C[C@@H]([C@@H](OC(C)=O)[C@H]12)C3(C)C` the same measures were 699% and 249%.
For `C=C1[C@@H](OC(=O)/C=C/c2ccccc2)CC[C@@]2(C)[C@@H](OC(C)=O)[C@H](OC(C)=O)C3=C(C)C(=O)C[C@@H]([C@@H](OC(C)=O)[C@H]12)C3(C)C` the same measures were 571% and 195%.
The compound `COc1ccc(CCN(C)CCCC(C#N)(c2ccc(OC)c(OC)c2)C(C)C)cc1OC` (centres undefined) [VERAPAMIL] came in with a Vincristine accumulation in test [1] of 739%. Besides, the “Vincristine accumulation (% of control)” value in test [2] turned out to be 254%.
Consider `CC[Si](CC)(CC)O[C@H]1CC[C@@]2(C)[C@@H](OC(C)=O)[C@H](OC(C)=O)C3=C(C)C(=O)C[C@@H]([C@@H](OC(C)=O)[C@@H]2[C@]12CO2)C3(C)C`, for which the Vincristine accumulation in test [1] amounted to 752%. Also, the “Vincristine accumulation (% of control)” value in test [2] is 233%.
With `C=C1[C@@H](OC(=O)c2ccccc2)CC[C@@]2(C)[C@@H](OC(C)=O)[C@H](OC(C)=O)C3=C(C)C(=O)C[C@@H]([C@@H](OC(=O)c4ccccc4)[C@H]12)C3(C)C`, the Vincristine accumulation in test [1] was determined as 470%. Further, the “Vincristine accumulation (% of control)” value in test [2] was determined as 146%.
For `CC(=O)O[C@@H]1[C@@H]2CC(=O)C(C)=C([C@@H](OC(C)=O)[C@H](OC(C)=O)[C@]3(C)CC[C@H](O)[C@@]4(CO4)[C@@H]13)C2(C)C` the same measures were 364% and 180%.
Take `C=C1[C@@H](O)CC[C@@]2(C)[C@@H](OC(C)=O)[C@H](OC(C)=O)C3=C(C)C(=O)C[C@@H]([C@@H](OC(=O)/C=C/c4ccccc4)[C@H]12)C3(C)C`: the Vincristine accumulation in test [1] was 727%. Further, the “Vincristine accumulation (% of control)” value in test [2] was found to be 207%.
For `C=C1[C@@H](O)CC[C@@]2(C)[C@@H](OC(C)=O)[C@H](OC(C)=O)C3=C(C)C(=O)C[C@@H]([C@@H](O)[C@H]12)C3(C)C` the same measures were 271% and 139%.
Compound `C=C1[C@@H](OC(=O)c2ccccc2)CC[C@@]2(C)[C@@H](OC(=O)c3ccccc3)[C@H](OC(=O)c3ccccc3)C3=C(C)C(=O)C[C@@H]([C@@H](OC(C)=O)[C@H]12)C3(C)C` yielded a Vincristine accumulation in test [1] of 324%. Also, the “Vincristine accumulation (% of control)” value in test [2] stood at 132%.
In the case of `C=C1[C@@H](OC(=O)c2ccccc2)CC[C@@]2(C)[C@@H](OC(C)=O)[C@H](OC(C)=O)C3=C(C)[C@H](OC(=O)c4ccccc4)C[C@@H]([C@@H](OC(C)=O)[C@H]12)C3(C)C`, the Vincristine accumulation in test [1] is given as 391%. Further, the “Vincristine accumulation (% of control)” value in test [2] came out at 197%.
For `C=C1[C@@H](OC(=O)/C=C/c2ccccc2)CC[C@@]2(C)[C@@H](O)[C@H](O)C3=C(C)C(=O)C[C@@H]([C@@H](O)[C@H]12)C3(C)C` the same measures were 518% and 225%.
As to `CC(=O)O[C@@H]1[C@@H]2CC(=O)C(C)=C([C@@H](OC(C)=O)[C@H](OC(C)=O)[C@]3(C)CC[C@H](OC(=O)/C=C/c4ccccc4)[C@@]4(CO4)[C@@H]13)C2(C)C`, in test [1], the Vincristine accumulation is listed as 1027%. In addition, the “Vincristine accumulation (% of control)” value in test [2] came out at 358%. Further, the IC50 in test [3] is 3 µg/mL (≈ 4.82 µM); in test [4], over 10 µg/mL.
Compound `C=C1[C@@H](OC(=O)c2ccccc2)CC[C@@]2(C)[C@@H](OC(C)=O)[C@H](OC(C)=O)C3=C(C)[C@@H](O)C[C@@H]([C@@H](OC(C)=O)[C@H]12)C3(C)C` came in with a Vincristine accumulation in test [1] of 649%. Further, in test [2], the “Vincristine accumulation (% of control)” value is listed as 151%.
For `C=C1[C@@H](O)CC[C@@]2(C)[C@@H](OC(C)=O)[C@H](OC(C)=O)C3=C(C)[C@@H](O)C[C@@H]([C@@H](OC(C)=O)[C@H]12)C3(C)C` the same measures were 422% and 164%.
For `C=C1[C@@H](OC(=O)/C=C/c2ccccc2)CC[C@@]2(C)[C@@H](OC(=O)c3ccccc3)[C@H](OC(=O)c3ccccc3)C3=C(C)C(=O)C[C@@H]([C@@H](OC(C)=O)[C@H]12)C3(C)C` the same measures were 210% and 141%.
For `C=C1[C@@H](O)CC[C@@]2(C)[C@@H](OC(C)=O)[C@H](OC(C)=O)C3=C(C)[C@@H](OC(=O)c4ccccc4)C[C@@H]([C@@H](OC(C)=O)[C@H]12)C3(C)C` the same measures were 643% and 185%.
Consider `C=C1[C@@H](OC(=O)/C=C/c2ccccc2)CC[C@@]2(C)[C@@H](OC(C)=O)[C@H](OC(C)=O)C3=C(C)[C@H](OC(=O)/C=C/c4ccccc4)C[C@@H]([C@@H](OC(C)=O)[C@H]12)C3(C)C`, for which the Vincristine accumulation in test [1] is 234%. For the same compound, the “Vincristine accumulation (% of control)” value in test [2] amounted to 157%.
For `CC(=O)O[C@@H]1[C@@H]2CC(=O)C(C)=C([C@@H](OC(C)=O)[C@H](OC(C)=O)[C@]3(C)CC[C@H](OC(=O)c4ccccc4)[C@@]4(CO4)[C@@H]13)C2(C)C` the same measures were 402% and 140%.
For `C=C1[C@@H](O)CC[C@@]2(C)[C@@H](OC(C)=O)[C@H](OC(C)=O)C3=C(C)C(=O)C[C@@H]([C@@H](OC(C)=O)[C@H]12)C3(C)C` [TAXININE A], the Vincristine accumulation in test [1] was 461%. In addition, the “Vincristine accumulation (% of control)” value in test [2] is 153%.
For `CC[Si](CC)(CC)O[C@H]1CC[C@@]2(C)[C@@H](OC(C)=O)[C@H](OC(C)=O)C3=C(C)C(=O)C[C@@H]([C@@H](OC(C)=O)[C@@H]2[C@@]12CO2)C3(C)C` the same measures were 748% and 227%.
Take `C=C1[C@@H](OCOCc2ccccc2)CC[C@@]2(C)[C@@H](OC(C)=O)[C@H](OC(C)=O)C3=C(C)C(=O)C[C@@H]([C@@H](OC(C)=O)[C@H]12)C3(C)C`: the Vincristine accumulation in test [1] is on record as 1110%. Further, the “Vincristine accumulation (% of control)” value in test [2] came out at 401%. The IC50 in test [3] came out at 8 µg/mL (≈ 13.4 µM); in test [4] it was 9 µg/mL (≈ 15.1 µM).
Turning to `C=C1[C@@H](OC(=O)c2ccccc2)CC[C@@]2(C)[C@@H](OC(C)=O)[C@H](OC(C)=O)C3=C(C)C(=O)C[C@@H]([C@@H](OC(C)=O)[C@H]12)C3(C)C`, the Vincristine accumulation in test [1] was determined as 645%. Further, in test [2], the “Vincristine accumulation (% of control)” value was 184%.
For `C=C1[C@@H](OC(=O)/C=C/c2ccccc2)CC[C@@]2(C)[C@@H](OC(=O)/C=C/c3ccccc3)[C@H](OC(=O)/C=C/c3ccccc3)C3=C(C)C(=O)C[C@@H]([C@@H](OC(C)=O)[C@H]12)C3(C)C` the same measures were 273% and 181%.
For `C=C1[C@@H](O[Si](CC)(CC)CC)CC[C@@]2(C)[C@@H](OC(C)=O)[C@H](OC(C)=O)C3=C(C)C(=O)C[C@@H]([C@@H](OC(C)=O)[C@H]12)C3(C)C` the same measures were 669% and 213%.
For `CC(=O)O[C@@H]1[C@@H]2CC(=O)C(C)=C([C@@H](OC(C)=O)[C@H](OC(C)=O)[C@]3(C)CC[C@H](O)[C@]4(CO4)[C@@H]13)C2(C)C` the same measures were 238% and 144%.
